Patent US20050060764A1, “Mouse model for bone metabolism” (priority 2003, published 2005)
Strand notation (5' to 3'): a small letter for the sugar, then the base; units joined by * are phosphorothioate-linked, units joined directly phosphodiester-linked; [ ] holds rarer units or linkages, { } end groups; capitals alone tell only the bases. e = 2'-O-(2-methoxyethyl) (MOE); [5mC] = 5-methylcytosine; d = 2'-deoxy (DNA)

Tested on: rat RANKL mRNA
Test: Antisense inhibition of rat RANKL mRNA levels in UMR-106 cells, quantitative real-time PCR (Table 3)
Format: cell-based
Set-up: concentration or dose not given beside the values
Settings: averages from three experiments
Protocol: Cells were seeded onto 24-well plates (Falcon-353047) at a density of […] for use in antisense oligonucleotide transfection.
Cells are treated and data are obtained in triplicate. […] Cells were harvested 16-24 hours after oligonucleotide treatment.
PCR reagents were obtained from Invitrogen Corporation, (Carlsbad, Calif.).
Probes and primers to rat RANKL were designed to hybridize to a rat RANKL sequence, using published sequence information (GenBank accession number NM_057149.1, incorporated herein as SEQ ID NO:18). For rat RANKL the PCR primers were: • forward primer: […] (SEQ ID NO:19) • reverse primer: […] (SEQ ID NO: 20) and the • PCR probe was: FAM-[…]-TAMRA (SEQ ID NO: 21) where FAM is the fluorescent reporter dye and TAMRA is the quencher dye. For rat GAPDH the PCR primers were: • forward primer: […](SEQ ID NO:22) • reverse primer: […](SEQ ID NO:23) and the • PCR probe was: 5′ JOE-[…]-TAMRA 3′ (SEQ ID NO: 24) where JOE is the fluorescent reporter dye and TAMRA is the quencher dye.
In accordance with the present invention, a second series of antisense compounds was designed to target different regions of the rat RANKL RNA, using published sequences (GenBank accession number NM_057149.1, incorporated herein as SEQ ID NO: 18, and GenBank accession number AF425669.1, incorporated herein as SEQ ID NO: 200). […] All cytidine residues are 5-methylcytidines. […] If present, “N.D.” indicates “no data”.

In order of rising “% INHIB (inhibition of rat RANKL mRNA levels)” value (from here on “% INHIB”):
1. 286655 (eG*eA*eA*eA*eA*d[5mC]*d[5mC]*dT*dT*dA*d[5mC]*dA*d[5mC]*d[5mC]*dT*eG*eA*eA*eA*eT; antisense) [compound 286655]  0%
2. 286633 (antisense e[5mC]*e[5mC]*eA*eG*eT*dT*d[5mC]*dT*dT*dA*dG*dT*dG*d[5mC]*dT*e[5mC]*e[5mC]*e[5mC]*e[5mC]*e[5mC]) [compound 286633]  4%
3. 286657 (e[5mC]*e[5mC]*eA*eG*eT*dT*dA*dA*dA*dT*dA*d[5mC]*dA*dT*d[5mC]*eT*eT*eG*eA*e[5mC]; antisense) [compound 286657]  10%
4. 286635 (antisense eT*eA*eA*eA*eA*dG*dT*dG*dG*dA*dA*dT*dT*d[5mC]*dA*eG*eA*eA*eT*eT) [compound 286635]  11%
5. 286656 (eT*eT*eT*eT*eG*d[5mC]*dA*d[5mC]*dA*dG*dA*dA*dA*dA*d[5mC]*e[5mC]*eT*eT*eA*e[5mC]; antisense) [compound 286656]  12%
6. 286634 (antisense eA*eA*eT*eT*e[5mC]*dA*dG*dA*dA*dT*dT*d[5mC]*d[5mC]*d[5mC]*dT*eG*eA*e[5mC]*e[5mC]*eA) [compound 286634]  21%
7. 286636 (antisense eT*eG*eG*eA*eA*dT*dA*dA*dA*dA*dG*dT*dG*dG*dA*eA*eT*eT*e[5mC]*eA) [compound 286636]  21%
8. 286628 (antisense eA*eG*eA*eT*eA*dG*dT*d[5mC]*d[5mC]*dG*d[5mC]*dA*dG*dG*dT*eA*e[5mC]*eG*e[5mC]*eT) [compound 286628]  24%
9. 286649 (antisense eT*eA*eG*eA*e[5mC]*d[5mC]*d[5mC]*dA*dG*dA*dG*dA*d[5mC]*dT*dA*eT*eG*eT*eA*eT) [compound 286649]  25%
10. 286638 (antisense eA*eG*eT*eA*e[5mC]*dG*dT*d[5mC]*dG*d[5mC]*dA*dT*d[5mC]*dT*dT*eG*eA*eT*e[5mC]*e[5mC]) [compound 286638]  26%
11. 286637 (antisense e[5mC]*eG*e[5mC]*eA*eT*d[5mC]*dT*dT*dG*dA*dT*d[5mC]*d[5mC]*dG*dG*eA*eT*e[5mC]*e[5mC]*eA) [compound 286637]  27%
12. 286631 (antisense eA*eT*eG*e[5mC]*eT*dG*dG*dT*dT*dT*dT*dA*dA*d[5mC]*dG*eA*e[5mC]*eA*eT*eA) [compound 286631]  35%
13. 286642 (antisense eT*e[5mC]*eA*eG*eT*d[5mC]*dT*dA*dT*dG*dT*d[5mC]*dT*dT*dG*eA*eA*e[5mC]*eT*eT) [compound 286642]  41%
14. 286630 (antisense eT*eT*eT*eT*eA*dA*d[5mC]*dG*dA*d[5mC]*dA*dT*dA*dT*dA*e[5mC]*e[5mC]*eA*eT*e[5mC]) [compound 286630]  44%
15. 286639 (antisense e[5mC]*e[5mC]*e[5mC]*eA*eA*dA*dG*dT*dA*d[5mC]*dG*dT*d[5mC]*dG*d[5mC]*eA*eT*e[5mC]*eT*eT) [compound 286639]  48%
16. 286641 (antisense e[5mC]*eT*eT*eT*eG*dA*dA*dA*dG*d[5mC]*d[5mC]*d[5mC]*d[5mC]*dA*dA*eA*eG*eT*eA*e[5mC]) [compound 286641]  49%
17. 286632 (antisense e[5mC]*eT*eT*eG*eG*dG*dA*dT*dT*dT*dT*dG*dA*dT*dG*e[5mC]*eT*eG*eG*eT) [compound 286632]  51%
18. 286645 (antisense e[5mC]*eT*eT*eA*eG*dT*dA*dG*dT*d[5mC]*dT*dT*dA*d[5mC]*dA*e[5mC]*eA*eT*eG*eT) [compound 286645]  51%
19. 286627 (antisense eG*e[5mC]*eA*eA*eA*dT*dG*dT*dT*dG*dG*d[5mC]*dG*dT*dA*e[5mC]*eA*eG*eG*eT) [compound 286627]  53%
20. 286646 (antisense eT*eT*eT*eT*eG*dT*dA*d[5mC]*dA*dA*d[5mC]*dG*dT*dG*dG*eG*e[5mC]*e[5mC]*eA*e[5mC]) [compound 286646]  53%
21. 286647 (antisense eG*eA*e[5mC]*e[5mC]*eT*dG*dT*dA*d[5mC]*dA*dG*dG*dG*dT*d[5mC]*eG*eA*eG*eA*eG) [compound 286647]  53%
22. 286650 (antisense eG*eT*eG*eG*e[5mC]*dA*d[5mC]*dA*dG*dG*d[5mC]*d[5mC]*d[5mC]*dA*dG*eG*eA*eG*eT*eT) [compound 286650]  53%
23. 286652 (e[5mC]*eT*e[5mC]*eT*eG*d[5mC]*dA*dA*dT*dG*dT*dA*dA*d[5mC]*dG*eG*eT*eA*e[5mC]*e[5mC]; antisense) [compound 286652]  53%
24. 286654 (eA*e[5mC]*eT*eT*eA*dT*dT*dT*dG*d[5mC]*dA*dG*dG*dT*dT*e[5mC]*e[5mC]*eA*eG*e[5mC]; antisense) [compound 286654]  55%
25. 286640 (antisense eA*eA*eA*eG*e[5mC]*d[5mC]*d[5mC]*d[5mC]*dA*dA*dA*dG*dT*dA*d[5mC]*eG*eT*e[5mC]*eG*e[5mC]) [compound 286640]  56%
26. 286644 (antisense eG*eT*e[5mC]*eT*eT*dA*d[5mC]*dA*d[5mC]*dA*dT*dG*dT*dA*dT*e[5mC]*eT*eA*e[5mC]*eA) [compound 286644]  57%
27. 286653 (eA*eA*eA*e[5mC]*e[5mC]*dA*dT*d[5mC]*dA*dT*dT*dT*d[5mC]*dT*d[5mC]*eT*eG*e[5mC]*eA*eA; antisense) [compound 286653]  58%
28. 286629 (antisense eA*e[5mC]*e[5mC]*eA*eT*d[5mC]*dA*dG*d[5mC]*dT*dG*dA*dA*dG*dA*eT*eA*eG*eT*e[5mC]) [compound 286629]  63%
29. 286643 (antisense eG*e[5mC]*eA*eT*eA*dT*d[5mC]*d[5mC]*dA*dT*dG*d[5mC]*dT*dA*dA*eG*eG*e[5mC]*eT*e[5mC]) [compound 286643]  69%
30. 286648 (antisense e[5mC]*e[5mC]*eA*eT*eT*dG*dT*dG*dT*dG*dA*dT*d[5mC]*dA*d[5mC]*e[5mC]*eA*eT*eG*eA) [compound 286648]  72%
31. 286651 (eA*eG*eG*eT*eT*d[5mC]*dT*d[5mC]*dA*dG*dT*dG*dG*d[5mC]*dA*e[5mC]*eA*eG*eG*e[5mC]; antisense) [compound 286651]  80%

For “aaaccatcatttctctgcaa (eA*eA*eA*e[5mC]*e[5mC]*dA*dT*d[5mC]*dA*dT*dT*dT*d[5mC]*dT*d[5mC]*eT*eG*e[5mC]*eA*eA; antisense) [ISIS 286653, 2′-MOE gapmer targeted to rat RANKL]”, the “% INHIB” value was “at least 40%”.
With “aaagccccaaagtacgtcgc (eA*eA*eA*eG*e[5mC]*d[5mC]*d[5mC]*d[5mC]*dA*dA*dA*dG*dT*dA*d[5mC]*eG*eT*e[5mC]*eG*e[5mC]; antisense) [ISIS 286640, 2′-MOE gapmer targeted to rat RANKL]” the “% INHIB” value was “at least 40%”.
